# Measurements reported in patent US20260000674A1, “PHARMACEUTICAL COMPOSITION” (GEXVal Inc., priority 2022, published 2026).
# Where a name gives a salt, the structure may show the parent alone.
# Test system: dermatitis in psoriasis model mice
# Experiment: Auricular thickening in imiquimod-induced psoriasis model mice (Test Examples 1 to 7)
# Type: in vivo, male BALB/cCrSlc mice
# Conditions: oral, Day 0 to Day 3
# Experimental: 15 mg/ear of imiquimod cream (product name: Beselna cream, manufactured by Mochida Pharmaceutical Co., Ltd.) was repeatedly applied to the right auricle of male BALB/cCrSlc mice (9 weeks old) at once a day for 4 days (Day 0 to Day 3) to prepare psoriasis model mice. One hour before the imiquimod application, Vehicle (0.5% methylcellulose (hereinafter abbreviated as 0.5% MC)), 3 mg/kg body weight MSP (5-HT4 receptor agonist), 3 mg/kg body weight RZT (5-HT1 receptor agonist), 3 mg/kg body weight TDS (5-HT1 receptor agonist), 3 mg/kg body weight LCS (5-HT2 receptor agonist), and 10 mg/kg body weight APR (positive control) were orally administered at 10 mL/kg body weight each (Day 0 to Day 3) (n=6 per administration group). The auricular thickness was measured before the imiquimod cream application (Day 0) and approximately 24 hours after the final administration of each evaluation substance (Day 1 to Day 4), and the difference in auricular thickness (auricular thickening) between Day 0 and Day 4 was evaluated as the degree of inflammation. Day 0 was defined as the day on which the imiquimod cream application was started.
# (§1) Psoriasis model mice were prepared by the same method as in Test Example 1, and Vehicle (0.5% MC), 3 mg/kg body weight MSP, 30 mg/kg body weight MSP, and 10 mg/kg body weight APR (positive control) were orally administered at 10 mL/kg body weight each (Day 0 to Day 3) (n=6 per administration group). The difference in auricular thickness (auricular thickening) between Day 0 and Day 4 was evaluated as the degree of inflammation.
# as §1, with “weight MSP, 3 mg/kg body weight PCP, 10 mg/kg body weight PCP, 30 mg/kg” for “weight MSP, 30 mg/kg”, “body weight PCP, 3 mg/kg body weight VRG, 10 mg/kg body weight VRG, 30 mg/kg body weight VRG, and 10” for “body weight MSP, and 10”, “10 mL/kg each (Day” for “10 mL/kg body weight each (Day”
# as §1, with “(0.5% MC), 30 mg/kg body” for “(0.5% MC), 3 mg/kg body”, “body weight CNP, 30 mg/kg body weight VRG, 30 mg/kg body weight CBP, and 10” for “body weight MSP, and 10”
# as §1, with “MC),” for “MC), 3 mg/kg body weight MSP,”, “PCP, 30 mg/kg body weight CSP, 30 mg/kg body weight TGR,” for “MSP,”
# Psoriasis model mice were prepared by the same method as in Test Example 1, and Vehicle (0.5% MC), 30 mg/kg body weight FCT, 30 mg/kg body weight UMP, 30 mg/kg body weight RLP, 30 mg/kg body weight RZP, 30 mg/kg body weight MSP, and 10 mg/kg body weight APR (positive control) were orally administered at 10 mL/kg body weight each (Day 0 to Day 3) (n=6 per administration group). The difference in auricular thickness (auricular thickening) between Day 0 and Day 4 was evaluated as the degree of inflammation.
# Psoriasis model mice were prepared by the same method as in Test Example 1, and Vehicle (0.5% MC), 30 mg/kg body weight NRP, 30 mg/kg body weight CJ-033466, 30 mg/kg body weight RVP, 30 mg/kg body weight E-3620, 30 mg/kg body weight MSP, and 10 mg/kg body weight APR (positive control) were orally administered at 10 mL/kg body weight each (Day 0 to Day 3) (n=6 per administration group). […]
# [1] = Test Example 4, FIG. 4, 30 mg/kg body weight
# [2] = Test Example 7, FIG. 7, 30 mg/kg body weight
# [3] = Test Example 5, FIG. 5, 30 mg/kg body weight
# [4] = Test Example 6, FIG. 6, 30 mg/kg body weight
# [5] = Test Example 1, FIG. 1, 3 mg/kg body weight
# [6] = Test Example 3, FIG. 3, at all doses (3, 10 and 30 mg/kg body weight)
compound,measurement,setting,value
"CCOc1cc([C@@H](CS(C)(=O)=O)N2C(=O)c3cccc(NC(C)=O)c3C2=O)ccc1OC [APR, Apremilast]",auricular thickening (difference in auricular thickness between Day 0 and Day 4) compared with 0.5% MC,"Test Example 1, FIG. 1, 10 mg/kg body weight",significantly suppressed the auricular thickening
same,auricular thickening (difference in auricular thickness between Day 0 and Day 4) compared with 0.5% MC,"Test Example 3, FIG. 3, 10 mg/kg body weight",significantly suppressed the auricular thickening
same,auricular thickening (difference in auricular thickness between Day 0 and Day 4) compared with 0.5% MC,"Test Example 4, FIG. 4, 10 mg/kg body weight",significantly suppressed the auricular thickening
same,auricular thickening (difference in auricular thickness between Day 0 and Day 4) compared with 0.5% MC,"Test Example 5, FIG. 5, 10 mg/kg body weight",significantly suppressed the auricular thickening
same,auricular thickening (difference in auricular thickness between Day 0 and Day 4) compared with 0.5% MC,"Test Example 6, FIG. 6, 10 mg/kg body weight",significantly suppressed the auricular thickening
same,auricular thickening (difference in auricular thickness between Day 0 and Day 4) compared with 0.5% MC,"Test Example 7, FIG. 7, 10 mg/kg body weight",significantly suppressed the auricular thickening
"COc1cc(N)c(Cl)cc1C(=O)NC1CCN(Cc2ccccc2)CC1 [CBP, Clebopride malate]",auricular thickening (difference in auricular thickness between Day 0 and Day 4) compared with 0.5% MC,[1],significantly suppressed the auricular thickening
Cc1cn2c(N)c(Cl)cc(C(=O)NCC3CCN(CC(C)C)CC3)c2n1 [CJ-033466],auricular thickening (difference in auricular thickness between Day 0 and Day 4) compared with 0.5% MC,[2],significantly suppressed the auricular thickening
"COc1cc(N)c(Cl)cc1C(=O)NC1CCN(CCCOc2ccc(F)cc2)CC1OC (stereo not shown) [CSP, Cisapride]",auricular thickening (difference in auricular thickness between Day 0 and Day 4) compared with 0.5% MC,[3],significantly suppressed the auricular thickening
CC#C[C@H](C)Oc1cc(N)c(Cl)cc1C(=O)NC1C[C@H]2CC[C@@H](C1)N2C.Cl (stereo partly shown) [E-3620],auricular thickening (difference in auricular thickness between Day 0 and Day 4) compared with 0.5% MC,[2],significantly suppressed the auricular thickening
"COC(=O)N1CCC(CN2CCC(CNC(=O)c3cccc4nc(C(C)C)[nH]c34)CC2)CC1 [FCT, Felcisetrag]",auricular thickening (difference in auricular thickness between Day 0 and Day 4) compared with 0.5% MC,[4],significantly suppressed the auricular thickening
"C[C@H]1CNCCc2ccc(Cl)cc21 [LCS, Lorcaserin hydrochloride]",auricular thickening (difference in auricular thickness between Day 0 and Day 4) compared with 0.5% MC,[5],"none of 3 mg/kg body weight RZT (5-HT1 receptor agonist) (comparative example), 3 mg/kg body weight TDS (5-HT1 receptor agonist) (comparative example), and 3 mg/kg body weight LCS (5-HT2 receptor agonist) (comparative example) suppressed the auricular thickening"
"COc1cc(N)c(Cl)cc1C(=O)N[C@@H]1CCN(CCCCCC(=O)O[C@H]2CN3CCC2CC3)C[C@@H]1OC [NRP, Naronapride hydrochloride]",auricular thickening (difference in auricular thickness between Day 0 and Day 4) compared with 0.5% MC,[2],significantly suppressed the auricular thickening
"COc1cc(N)c(Cl)cc1C(=O)NCC1CCN(CC[C@H](OC(N)=O)c2ccc(F)cc2)CC1.Cl [RLP, Relenopride hydrochloride]",auricular thickening (difference in auricular thickness between Day 0 and Day 4) compared with 0.5% MC,[4],significantly suppressed the auricular thickening
"COCCCN1CC[C@@H](CNC(=O)c2cc(Cl)c(N)c3c2OC(C)(C)C3)[C@H](O)C1 [RVP, Revexepride]",auricular thickening (difference in auricular thickness between Day 0 and Day 4) compared with 0.5% MC,[2],significantly suppressed the auricular thickening
"CN(C)CCc1c[nH]c2ccc(Cn3cncn3)cc12 [RZT, Rizatriptan benzoate]",auricular thickening (difference in auricular thickness between Day 0 and Day 4) compared with 0.5% MC,[5],"none of 3 mg/kg body weight RZT (5-HT1 receptor agonist) (comparative example), 3 mg/kg body weight TDS (5-HT1 receptor agonist) (comparative example), and 3 mg/kg body weight LCS (5-HT2 receptor agonist) (comparative example) suppressed the auricular thickening"
"[H]/N=C(/NCCCCC)N/N=C/c1c[nH]c2ccc(OC)cc12 [TGR, Tegaserod maleate]",auricular thickening (difference in auricular thickness between Day 0 and Day 4) compared with 0.5% MC,[3],significantly suppressed the auricular thickening
"COCCCN1CCC(c2nnc(-c3nn(C(C)C)c4ccccc34)o2)CC1 [UMP, Usmarapride]",auricular thickening (difference in auricular thickness between Day 0 and Day 4) compared with 0.5% MC,[4],significantly suppressed the auricular thickening
"CC(C)n1c(=O)c(C(=O)N[C@H]2C[C@H]3CC[C@@H](C2)N3C[C@@H](O)CN(C)S(C)(=O)=O)cc2ccccc21 [VRG, Velusetrag]",auricular thickening (difference in auricular thickness between Day 0 and Day 4) compared with 0.5% MC,[6],significantly suppressed the auricular thickening at all doses
same,auricular thickening (difference in auricular thickness between Day 0 and Day 4) compared with 0.5% MC,[1],significantly suppressed the auricular thickening
Cinitapride tartrate [CNP],auricular thickening (difference in auricular thickness between Day 0 and Day 4) compared with 0.5% MC,[1],significantly suppressed the auricular thickening
Mosapride citrate dihydrate [MSP],auricular thickening (difference in auricular thickness between Day 0 and Day 4) compared with 0.5% MC,[5],significantly suppressed the auricular thickening
same,auricular thickening (difference in auricular thickness between Day 0 and Day 4) compared with 0.5% MC,"Test Example 2, FIG. 2, 3 mg/kg body weight",significantly suppressed the auricular thickening in a dose-dependent manner
same,auricular thickening (difference in auricular thickness between Day 0 and Day 4) compared with 0.5% MC,"Test Example 2, FIG. 2, 30 mg/kg body weight",significantly suppressed the auricular thickening in a dose-dependent manner
same,auricular thickening (difference in auricular thickness between Day 0 and Day 4) compared with 0.5% MC,"Test Example 3, FIG. 3, 3 mg/kg body weight",significantly suppressed the auricular thickening
same,auricular thickening (difference in auricular thickness between Day 0 and Day 4) compared with 0.5% MC,[1],significantly suppressed the auricular thickening
same,auricular thickening (difference in auricular thickness between Day 0 and Day 4) compared with 0.5% MC,[4],significantly suppressed the auricular thickening
same,auricular thickening (difference in auricular thickness between Day 0 and Day 4) compared with 0.5% MC,[2],significantly suppressed the auricular thickening
Prucalopride succinate [PCP],auricular thickening (difference in auricular thickness between Day 0 and Day 4) compared with 0.5% MC,[6],significantly suppressed the auricular thickening at all doses
same,auricular thickening (difference in auricular thickness between Day 0 and Day 4) compared with 0.5% MC,[3],significantly suppressed the auricular thickening
Tandospirone citrate [TDS],auricular thickening (difference in auricular thickness between Day 0 and Day 4) compared with 0.5% MC,[5],"none of 3 mg/kg body weight RZT (5-HT1 receptor agonist) (comparative example), 3 mg/kg body weight TDS (5-HT1 receptor agonist) (comparative example), and 3 mg/kg body weight LCS (5-HT2 receptor agonist) (comparative example) suppressed the auricular thickening"
